Measurements published in patent US20200222418A1, “USE OF PHENOTHIAZINE DERIVATIVE IN THE TREATMENT OF INFECTION CAUSED BY BACTERIA CARRYING TYPE IV PILI” (priority 2017, published 2020).
“Also recorded” adds a separate entry of the source.

What was measured:
[1] = test system: N. meningitidis 2C4.3 aggregates; type: cell-based, Neisseria meningitidis; details: for dispersion of bacterial aggregates formed in suspension: aggregates pre-formed 2 h, 20 min, Trifluoperazine 10-40 μM, Gentamicin 150 μg/ml, Cefotaxim 20 μg/ml
Description: N. meningitidis 2C4.3 was grown in liquid culture at 10^7 CFU/ml for 2 h to form bacterial aggregates and were treated with increasing concentrations of Trifluoperazine (10 to 40 μM), Gentamicin (150 μg/ml) or cefotaxim (20 μg/ml) for 20 minutes and bacterial aggregates were immediately visualized using a phase-contrast microscope. […] (B) Quantification of the bacterial aggregation was performed using Image J software.
N. meningitidis 2C4.3 wild type strain and the isogenic derivative mutant PilT ([…]PiIT) were grown in liquid culture at 10^7 CFU/ml for 2 h to form bacterial aggregates and then treated with 50 μM Trifluoperazine. Time lapse phase-contrast video microscopy was performed to visualize the effect on bacterial aggregates over time. Images were taken at the indicated time points of the video.
N. meningitidis 2C4.3 was grown in liquid culture at 10^7 CFU/ml for 2 h to form bacterial aggregates and were treated with 30 μM Trifluoperazine for 30 minutes to induce bacterial dispersion or PBS as a control. The medium was replaced to remove the Trifluoperazine and the reformation of bacterial aggregates were visualized overtime using a phase-contrast microscope.
Bacteria were grown in suspension for 2 h then Phenothiazine derivatives were added at the indicated concentrations.
N. meninigitidis 2C4.3 strain was grown in suspension in wells of a 24 well plate, containing 1 ml of DMEM medium supplemented with 10% heat-inactivated fetal calf serum. After 2 h of growth, Trifluoperazine (or control vehicle) was added at various concentrations ranging from 10 to 40 μM for 20 min and the bacterial aggregates were visualized over time using a phase-contrast microscope.
N. meninigitidis 2C4.3 strain was grown in suspension in wells of a 24 well plate, containing 1 ml of DMEM medium supplemented with 10% heat-inactivated fetal calf serum. After 2 h of growth, various concentrations (0.5 to 80 μM) of phenothiazine-derivative compounds or control vehicle (PBS or DMSO) were added to the wells for 30 min and the bacterial aggregates were visualized using a phase-contrast microscope. Were tested phenothiazine-derivative compounds of: • the Piperazine group: Trifluoperazine (Sigma #T8516), Fluphenazine (Sigma #F4765), Prochlorperazine (Sigma #P9178) Perphenazine (Sigma #P6402); • the Piperidine group: Thioridazine (Sigma #T9025) and Mesoridazin (Sigma #M4068); • the Aliphatic group: Chlorpromazine (Sigma #C8138), Promazine (Sigma #P6656), Triflupromazine (Sigma #1686003) and levomepromazine (Sigma #L0500000).

[2] = test system: N. meningitidis Nm2C4.3 strain; assay: Bactericidal activity, colony forming unit count after treatment in liquid culture; type: cell-based, Neisseria meningitidis; details: 15 min; for bactericidal effect: Gentamicin 150 μg/ml, Trifluoperazine 10 to 50 μM
Description: N. meningitidis Nm2C4.3 strain grown in liquid culture at 10^7 CFU/ml were treated with increasing concentrations of Trifluoperazine (10 to 50 μM) or Gentamicin (150 μg/ml) for 15 minutes (A) Bactericidal activity was determined by the count of colony forming units on GCB agar plates 24 h after treatment. (B) Images of the non-treated bacteria or bacteria treated with 30 μM TFP grown for 24 h on GCB agar plates.
Nm2C4.3, a piliated capsulated Opa^−Opc^− variant of the serogroup C meningococcal clinical isolate 8013, was cultured in Dulbecco's Modified Eagle Medium (DMEM) 4.5 g/L-Glutamax media 0.1% BSA during two hours at 37° C. 5% CO2. A bacterial suspension at optical density (OD) 0.1 was then distributed in 24-well plate (1 ml/well). After 1 hour of incubation, Trifluoperazine (Sigma #T8516, stock solution in PBS) was added to obtain final concentrations of 10, 20, 30, 40, and 50 μM. Gentamicin (150 μg/ml in DMEM) and PBS alone were used as controls. After 15 min treatment, serial dilutions were performed in physiological water and 100 μl of each dilution were plated on Petri dishes containing GCB solid media (BD, Difco GC media) containing supplements, incubated overnight and the colony forming units were counted.

[3] = test system: HDMECs infected with Nm2C4.3; assay: Cytoskeleton remodelling and cell junction integrity of infected HDMEC (immunofluorescence); type: cell-based, human; details: Gentamicin 150 μg/ml 1 h, Trifluoperazine 50 μM applied after gentamicin
Description: (A) Experimental procedure: HDMEC were infected for 2 h with Nm2C4.3, treated for 1 h with gentamicin (150 μg/ml) and then 15 min with Trifluoperazine (50 μM) (or solvent alone as a control) and left in medium for 1 h before fixation. (B) Upper panels: Representative fluorescence microscopy showing the effect on the endothelial cell cytoskeleton remodelling analysed by immunostaining of Ezrin and Actin. Lower panels: Effect on the endothelial cell junction integrity was analysed by immunostaining of Actin and VE-cadherin. (C) Quantification of the bacterial colonization (upper panel) Ezrin recruitment and cortical actin polymerization at sites of bacterial adhesion (lower panel) was performed using Image J software.
HDMECs were grown in their specific culture medium (Promocell #C-12210) and confluent monolayers were infected with 2C4.3. Briefly, bacteria were precultured in prewarmed cell culture medium for 1 h 30 min at 37° C. 5% CO2. The OD600 was adjusted to 0.1 and HDMECs were then overlaid with bacteria for 30 min (MOI of 100). Unbound bacteria were removed by three washes in cell culture media and infection was allowed to proceed for 1 h at 37° C. 5% CO2. Gentamicin was added at 150 μg/ml for 1 h, then after three washes in cell culture media, Trifluoperazine was applied where mentioned at 50 μM for 20 min. After three washes in cell culture media, cells were allowed to recover for 1 h in cell culture media. At the indicated time, cells were fixed with 4% Paraformaldehyde for 10 min. Immunolabelling was then performed as above described in example 4, using DAPI, Alexa Fluor 633 Phalloidin, Polyclonal antisera raised against Ezrin, obtained from Pr P. Mangeat (CRBM, Montpellier, France) and anti-human VE-Cadherin (eBioscience #BMS158).

Compound	dispersion of bacterial aggregates formed in suspension [1]	bactericidal effect [2]	Ezrin recruitment and cortical actin polymerization at bacterial adhesion sites [3]	VE-cadherin staining / endothelial cell junction integrity [3]	bacterial colonies at the endothelial cell surface [3]	reversibility of the effect on aggregation upon removal of the drug ([1]; 30 μM for 30 minutes, then medium replaced)	time after addition within which dispersion of aggregates occurs ([1]; time lapse video microscopy, 50 μM) [min]	viable count of the culture ([2]; Trifluoperazine 10 to 30 μM, culture contained 10^7 CFU/ml)
CN[C@@H]1[C@@H](O)C(O[C@@H]2[C@@H](O)[C@H](O[C@H]3O[C@H]([C@@H](C)NC)CC[C@H]3N)[C@@H](N)C[C@H]2N)OC[C@]1(C)O (stereo partly drawn) [Gentamicin, (3R,4R,5R)-2-{[(1S,2S,3R,4S,6R)-4,6-diamino-3-{[(2R,3R,6S)-3-amino-6-[(1R)-1-(methylamino)ethyl]oxan-2-yl]oxy}-2-hydroxycyclohexyl]oxy}-5-methyl-4-(methylamino)oxane-3,5-diol]	did not significantly induce the dispersion	killed all bacteria	still induced Ezrin recruitment, cortical actin polymerization	discontinuous distribution of VE-cadherin	reduced the number of colonies			
CN1CCN(CCCN2c3ccccc3Sc3ccc(C(F)(F)F)cc32)CC1 [Trifluoperazine]	induced their dispersion	moderate bactericidal effect	Few Ezrin recruitment	preserved endothelial cell junction integrity	induced their dispersion; also recorded: induced the dispersion of most of the bacterial colonies	reversible	10 to 15	10^6 CFU/ml
